Earlier results, collected in patent publication US6653351B2, “Adjuvant chemotherapy for anaplastic gliomas” (priority 2001, dated 2003).
Where a name gives a salt, the structure may show the parent alone.

Settings: in vivo

SMILES	crossing of the blood brain barrier
O=NN(CCCl)C(=O)NC1CCCCC1 [Lomustine, 1-(2-chloroethyl)-3-cyclohexyl-1-nitrosourea]	crosses the blood brain barrier
CC[C@]1(O)C[C@H]2CN(CCc3c([nH]c4ccccc34)[C@@](C(=O)OC)(c3cc4c(cc3OC)N(C=O)[C@H]3[C@@](O)(C(=O)OC)[C@H](OC(C)=O)[C@]5(CC)C=CCN6CC[C@]43[C@@H]65)C2)C1 [Vincristine, vincaleukoblastine, a 22-oxo-, sulfate (1:1) (salt)]	does not appear to cross the blood brain barrier
